# From the supplement of paper PMC10307832
# Key:
# Assay in all cases: relative viability (nuclei count vs DMSO), 5 days (fraction); higher = more cells survive
# [1] = test system: LU99A
# Outline: (§1)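 For relative viability, nuclei counts in treated wells were divided by those in vehicle wells. Lung cancer cell lines had been pin-tool dosed in 1536-well plates the day after seeding and cultured for 5 days, then fixed and stained in one step (final 0.05% Triton X-100, 1% formaldehyde, 1 ug/ml Hoechst) and imaged at 4×. Doses were one drug alone or a fixed anchor-drug dose plus five library-drug doses (not always all listed) in √10 steps, and values are duplicate-plate medians.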
# [2] = test system: NCI-H1993
# Outline: as §1
# [3] = test system: NCI-H1755
# Outline: as §1
# [4] = test system: HCC-366
# Outline: as §1
# [5] = test system: LC-2-ad
# Outline: as §1
# [6] = test system: HCC-827
# Outline: as §1
# [7] = test system: HCC-78
# Outline: as §1
# [8] = test system: COR-L23
# Outline: as §1
# [9] = test system: RERF-LC-KJ
# Outline: as §1
# [10] = test system: COR-L 105
# Outline: as §1
# [11] = test system: 201T
# Outline: as §1
# [12] = test system: EKVX
# Outline: as §1
# [13] = test system: HCC-15
# Outline: as §1
# [14] = test system: NCI-H1944
# Outline: as §1
# [15] = test system: NCI-H1650
# Outline: as §1
# [16] = test system: LXF-289
# Outline: as §1
# [17] = test system: NCI-H1975
# Outline: as §1
# [18] = test system: SK-LU-1
# Outline: as §1
# [19] = test system: NCI-H3122
# Outline: as §1
# [20] = test system: HARA
# Outline: as §1
# [21] = test system: NCI-H1734
# Outline: as §1
# [22] = test system: BEN
# Outline: as §1
smiles,measurement,setting,value
O=C(O)CCCCC(CCSCc1ccccc1)SCc1ccccc1 (centres undefined) [CPI-613] + CC(=O)c1c(C)c2cnc(Nc3ccc(N4CCNCC4)cn3)nc2n(C2CCCC2)c1=O [Palbociclib] (partner 0.5 µM),relative viability,[1]; first compound 5 µM,0.383
same,relative viability,[1]; first compound 15.81 µM,0.411
same,relative viability,[1]; first compound 50 µM,0.372
same,relative viability,[1]; first compound 158.11 µM,0.193
same,relative viability,[1]; first compound 500 µM,0.264
same,relative viability,[2]; first compound 5 µM,0.611
same,relative viability,[2]; first compound 15.81 µM,0.581
same,relative viability,[2]; first compound 50 µM,0.715
same,relative viability,[2]; first compound 158.11 µM,0.468
same,relative viability,[2]; first compound 500 µM,0.38
same,relative viability,[3]; first compound 5 µM,0.513
same,relative viability,[3]; first compound 15.81 µM,0.432
same,relative viability,[3]; first compound 50 µM,0.454
same,relative viability,[3]; first compound 158.11 µM,0.448
same,relative viability,[3]; first compound 500 µM,0.393
same,relative viability,[4]; first compound 5 µM,0.354
same,relative viability,[4]; first compound 15.81 µM,0.322
same,relative viability,[4]; first compound 50 µM,0.336
same,relative viability,[4]; first compound 158.11 µM,0.0258
same,relative viability,[4]; first compound 500 µM,0.006
same,relative viability,[5]; first compound 5 µM,0.446
same,relative viability,[5]; first compound 15.81 µM,0.472
same,relative viability,[5]; first compound 50 µM,0.489
same,relative viability,[5]; first compound 158.11 µM,0.24
same,relative viability,[5]; first compound 500 µM,0.168
same,relative viability,[6]; first compound 5 µM,0.465
same,relative viability,[6]; first compound 15.81 µM,0.491
same,relative viability,[6]; first compound 50 µM,0.464
same,relative viability,[6]; first compound 158.11 µM,0.496
same,relative viability,[6]; first compound 500 µM,0.417
same,relative viability,[7]; first compound 5 µM,0.462
same,relative viability,[7]; first compound 15.81 µM,0.527
same,relative viability,[7]; first compound 50 µM,0.473
same,relative viability,[7]; first compound 158.11 µM,0.447
same,relative viability,[7]; first compound 500 µM,0.427
same,relative viability,[8]; first compound 5 µM,0.285
same,relative viability,[8]; first compound 15.81 µM,0.321
same,relative viability,[8]; first compound 50 µM,0.324
same,relative viability,[8]; first compound 158.11 µM,0.11
same,relative viability,[8]; first compound 500 µM,0.0343
same,relative viability,[9]; first compound 5 µM,1.07
same,relative viability,[9]; first compound 15.81 µM,0.952
same,relative viability,[9]; first compound 50 µM,1.09
same,relative viability,[9]; first compound 158.11 µM,0.615
same,relative viability,[9]; first compound 500 µM,0.571
same,relative viability,[10]; first compound 5 µM,0.423
same,relative viability,[10]; first compound 15.81 µM,0.441
same,relative viability,[10]; first compound 50 µM,0.379
same,relative viability,[10]; first compound 158.11 µM,0.294
same,relative viability,[10]; first compound 500 µM,0.26
same,relative viability,[11]; first compound 5 µM,0.341
same,relative viability,[11]; first compound 15.81 µM,0.34
same,relative viability,[11]; first compound 50 µM,0.353
same,relative viability,[11]; first compound 158.11 µM,0.185
same,relative viability,[11]; first compound 500 µM,0.204
same,relative viability,[12]; first compound 5 µM,0.372
same,relative viability,[12]; first compound 15.81 µM,0.449
same,relative viability,[12]; first compound 50 µM,0.404
same,relative viability,[12]; first compound 500 µM,0.378
same,relative viability,[13]; first compound 5 µM,0.649
same,relative viability,[13]; first compound 15.81 µM,0.694
same,relative viability,[13]; first compound 50 µM,0.681
same,relative viability,[13]; first compound 158.11 µM,0.332
same,relative viability,[13]; first compound 500 µM,0.126
same,relative viability,[14]; first compound 5 µM,0.331
same,relative viability,[14]; first compound 15.81 µM,0.312
same,relative viability,[14]; first compound 50 µM,0.335
same,relative viability,[14]; first compound 158.11 µM,0.259
same,relative viability,[14]; first compound 500 µM,0.26
same,relative viability,[15]; first compound 5 µM,0.326
same,relative viability,[15]; first compound 15.81 µM,0.276
same,relative viability,[15]; first compound 50 µM,0.317
same,relative viability,[15]; first compound 158.11 µM,0.0807
same,relative viability,[15]; first compound 500 µM,0.0173
same,relative viability,[16]; first compound 5 µM,0.561
same,relative viability,[16]; first compound 15.81 µM,0.59
same,relative viability,[16]; first compound 50 µM,0.558
same,relative viability,[16]; first compound 158.11 µM,0.509
same,relative viability,[16]; first compound 500 µM,0.393
same,relative viability,[17]; first compound 5 µM,0.638
same,relative viability,[17]; first compound 15.81 µM,0.645
same,relative viability,[17]; first compound 50 µM,0.388
same,relative viability,[17]; first compound 158.11 µM,0.562
same,relative viability,[17]; first compound 500 µM,0.0655
same,relative viability,[18]; first compound 5 µM,0.422
same,relative viability,[18]; first compound 15.81 µM,0.392
same,relative viability,[18]; first compound 50 µM,0.276
same,relative viability,[18]; first compound 158.11 µM,0.32
same,relative viability,[18]; first compound 500 µM,0.202
same,relative viability,[19]; first compound 5 µM,0.178
same,relative viability,[19]; first compound 15.81 µM,0.198
same,relative viability,[19]; first compound 50 µM,0.175
same,relative viability,[19]; first compound 158.11 µM,0.155
same,relative viability,[19]; first compound 500 µM,0.145
same,relative viability,[20]; first compound 5 µM,0.214
same,relative viability,[20]; first compound 15.81 µM,0.26
same,relative viability,[20]; first compound 50 µM,0.309
same,relative viability,[20]; first compound 158.11 µM,0.198
same,relative viability,[20]; first compound 500 µM,0.105
same,relative viability,[21]; first compound 5 µM,0.314
same,relative viability,[21]; first compound 15.81 µM,0.274
same,relative viability,[21]; first compound 50 µM,0.335
same,relative viability,[21]; first compound 158.11 µM,0.199
same,relative viability,[21]; first compound 500 µM,0.144
same,relative viability,[22]; first compound 5 µM,0.457
same,relative viability,[22]; first compound 15.81 µM,0.506
same,relative viability,[22]; first compound 50 µM,0.487
same,relative viability,[22]; first compound 158.11 µM,0.483
same,relative viability,[22]; first compound 500 µM,0.42
